Data from patent publication US11852633B2 (priority 2017, dated 2023).

Conditions: K2CO3 5 mM, CH3CN:water (4:1), 1 hour

SMILES: O=[N+]([O-])c1ccc(S(=O)(=O)Oc2ccccc2)c([N+](=O)[O-])c1 [probe 1, phenyl 2,4-dinitrobenzenesulfonate]
- CD response with other L-amino acids (phenylalanine, alanine, serine, tyrosine) versus L-Cys (probe 2.50 mM, amino acid 1.25 mM): remained CD silent with the exception of the cysteine solution
- CD response with biothiols L-homocysteine and L-glutathione (probe 2.5 mM, biothiol 1.25 mM): no induction of a CD signal
